In ChEMBL document CHEMBL5143617 (Eur J Med Chem, 2022):

Legend:
[1] = Metabolic stability in human liver microsomes assessed as intrinsic clearance
[2] = Cmax in mouse plasma at 1.25 mg/kg, ip measured up to 480 mins by LC/ESI-MS/MS analysis; type: ADME, organism-based; design: time < 480 min, dose 1.25 mg/kg, route ip
[3] = target: T1, cAMP and cAMP-inhibited cGMP 3',5'-cyclic phosphodiesterase 10A (Homo sapiens, UniProt Q9Y233); assay: Inhibition of PDE10A (unknown origin) preincubated for 20 mins followed by substrate addition and measured after 1 hr by PEDlight AMP detection reagent based luminescence assay
[4] = Cmax in mouse hippocampus at 1.25 mg/kg, ip by LC/ESI-MS/MS analysis; type: ADME, organism-based; design: dose 1.25 mg/kg, route ip
[5] = AUC(0 to t) in mouse hippocampus at 1.25 mg/kg, ip by LC/ESI-MS/MS analysis; type: ADME, organism-based; design: dose 1.25 mg/kg, route ip
[6] = Tmax in mouse hippocampus at 1.25 mg/kg, ip by LC/ESI-MS/MS analysis; type: ADME, organism-based
[7] = Tmax in mouse plasma at 1.25 mg/kg, ip measured up to 480 mins by LC/ESI-MS/MS analysis; type: ADME, organism-based
[8] = AUC(0 to t) in mouse striatum at 1.25 mg/kg, ip by LC/ESI-MS/MS analysis; type: ADME, organism-based; design: dose 1.25 mg/kg, route ip
[9] = target: 5-hydroxytryptamine receptor 2A (Homo sapiens, UniProt P28223); assay: Binding affinity to 5HT-2A receptor (unknown origin)
[10] = Cmax in mouse frontal cortex at 1.25 mg/kg, ip by LC/ESI-MS/MS analysis; type: ADME, organism-based; design: dose 1.25 mg/kg, route ip
[11] = target: T2, Adrenergic receptor alpha-1 (Homo sapiens, UniProt P35348+P25100+P35368); assay: Binding affinity to adrenergic alpha 1 receptor (unknown origin); type: protein assay
T2 sequence (P35348 whole entry): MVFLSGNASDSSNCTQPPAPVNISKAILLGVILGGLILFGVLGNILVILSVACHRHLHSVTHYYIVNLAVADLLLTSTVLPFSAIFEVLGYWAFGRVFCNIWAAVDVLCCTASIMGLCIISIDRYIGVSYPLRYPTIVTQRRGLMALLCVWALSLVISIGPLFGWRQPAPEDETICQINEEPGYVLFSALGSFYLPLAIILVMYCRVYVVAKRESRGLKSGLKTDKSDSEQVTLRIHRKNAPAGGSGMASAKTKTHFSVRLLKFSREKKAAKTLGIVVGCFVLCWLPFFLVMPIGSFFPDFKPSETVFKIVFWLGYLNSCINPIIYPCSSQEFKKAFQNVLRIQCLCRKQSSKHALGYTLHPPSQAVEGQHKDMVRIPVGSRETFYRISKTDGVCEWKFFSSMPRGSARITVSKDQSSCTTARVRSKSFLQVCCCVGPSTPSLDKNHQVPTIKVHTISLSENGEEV
T2 sequence (P25100 whole entry): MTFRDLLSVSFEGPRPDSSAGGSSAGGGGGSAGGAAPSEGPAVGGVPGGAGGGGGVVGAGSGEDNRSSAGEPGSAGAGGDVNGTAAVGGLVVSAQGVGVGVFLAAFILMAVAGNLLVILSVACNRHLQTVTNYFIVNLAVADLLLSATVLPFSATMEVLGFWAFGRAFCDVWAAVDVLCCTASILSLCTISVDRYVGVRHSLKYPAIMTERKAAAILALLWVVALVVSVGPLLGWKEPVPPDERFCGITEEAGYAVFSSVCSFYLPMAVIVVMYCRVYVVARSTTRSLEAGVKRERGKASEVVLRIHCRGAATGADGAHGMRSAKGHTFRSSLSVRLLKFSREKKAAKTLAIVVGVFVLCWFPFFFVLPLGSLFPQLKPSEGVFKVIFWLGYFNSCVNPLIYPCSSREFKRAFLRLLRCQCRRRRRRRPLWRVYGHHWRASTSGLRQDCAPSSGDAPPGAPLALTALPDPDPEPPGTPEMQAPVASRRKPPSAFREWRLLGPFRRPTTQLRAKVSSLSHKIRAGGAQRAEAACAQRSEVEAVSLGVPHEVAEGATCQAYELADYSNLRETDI
T2 sequence (P35368 whole entry): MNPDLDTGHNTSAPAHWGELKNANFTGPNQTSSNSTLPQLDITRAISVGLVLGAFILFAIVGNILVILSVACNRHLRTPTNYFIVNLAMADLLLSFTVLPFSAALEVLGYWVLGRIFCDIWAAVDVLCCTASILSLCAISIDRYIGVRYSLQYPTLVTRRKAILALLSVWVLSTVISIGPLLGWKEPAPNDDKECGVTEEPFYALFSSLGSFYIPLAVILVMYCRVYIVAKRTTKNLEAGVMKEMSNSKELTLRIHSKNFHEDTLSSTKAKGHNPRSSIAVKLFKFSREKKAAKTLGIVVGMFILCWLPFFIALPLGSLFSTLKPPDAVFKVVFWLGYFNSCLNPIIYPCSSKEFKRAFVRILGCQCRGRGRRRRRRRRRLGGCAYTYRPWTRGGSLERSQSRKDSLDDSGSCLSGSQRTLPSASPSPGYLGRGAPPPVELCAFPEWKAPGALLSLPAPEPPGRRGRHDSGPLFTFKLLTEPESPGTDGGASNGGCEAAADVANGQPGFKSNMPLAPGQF

[12] = target: 5-hydroxytryptamine receptor 7 (Homo sapiens, UniProt P34969); assay: Displacement of [3H]-5-CT from human 5-HT7 receptor expressed in CHO-K1 cells membrane by scintillation counter analysis; type: cell membranes
[13] = AUC(0 to t) in mouse frontal cortex at 1.25 mg/kg, ip by LC/ESI-MS/MS analysis; type: ADME, organism-based; design: dose 1.25 mg/kg, route ip
[14] = Tmax in mouse frontal cortex at 1.25 mg/kg, ip by LC/ESI-MS/MS analysis; type: ADME, organism-based
[15] = Cmax in mouse striatum at 1.25 mg/kg, ip by LC/ESI-MS/MS analysis; type: ADME, organism-based; design: dose 1.25 mg/kg, route ip
[16] = Tmax in mouse striatum at 1.25 mg/kg, ip by LC/ESI-MS/MS analysis; type: ADME, organism-based
[17] = AUC(0 to t) in mouse plasma at 1.25 mg/kg, ip measured up to 480 mins by LC/ESI-MS/MS analysis; type: ADME, organism-based; design: dose 1.25 mg/kg, time < 480 min, route ip; conditions: in vivo, 8 h
[18] = Apparent volume of distribution in mouse plasma at 1.25 mg/kg, ip measured up to 480 mins by LC/ESI-MS/MS analysis; type: ADME, organism-based
D(2) dopamine receptor = D(2) dopamine receptor (Homo sapiens, UniProt P14416); assay: Binding affinity to dopamine D2 receptor (unknown origin)
[19] = target: T1, cAMP and cAMP-inhibited cGMP 3',5'-cyclic phosphodiesterase 10A; assay: Inhibition of PDE10A (unknown origin) at 10 uM preincubated for 20 mins followed by substrate addition and measured after 1 hr by PEDlight AMP detection reagent based luminescence assay relative to control; conditions: time 80.0 min
[20] = target: T3, 5-hydroxytryptamine receptor 1A (Homo sapiens, UniProt P08908); assay: Displacement of [3H]-[…] from human 5-HT1A receptor expressed in CHO-K1 cells membrane by scintillation counter analysis; type: cell membranes
T3 sequence (P08908 whole entry): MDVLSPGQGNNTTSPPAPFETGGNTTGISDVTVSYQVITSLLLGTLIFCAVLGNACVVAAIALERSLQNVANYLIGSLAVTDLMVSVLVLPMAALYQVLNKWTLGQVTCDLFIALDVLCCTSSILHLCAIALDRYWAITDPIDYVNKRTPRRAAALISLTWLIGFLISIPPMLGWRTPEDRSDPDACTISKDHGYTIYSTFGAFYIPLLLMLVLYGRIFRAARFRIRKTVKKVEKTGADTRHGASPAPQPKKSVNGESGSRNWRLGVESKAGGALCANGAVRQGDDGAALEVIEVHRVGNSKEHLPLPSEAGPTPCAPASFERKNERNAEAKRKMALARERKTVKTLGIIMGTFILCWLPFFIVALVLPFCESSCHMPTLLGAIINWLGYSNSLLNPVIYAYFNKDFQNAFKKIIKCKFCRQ

[21] = Permeability of the compound across apical to basolateral side in human Caco-2 cells at pH 6.5; type: ADME, cell-based; conditions: Caco-2, pH 6.5, read-out: permeability
[22] = Permeability of the compound across apical to basolateral side in human Caco-2 cells at pH 7.4; type: ADME, cell-based; conditions: Caco-2, pH 7.4, read-out: permeability

Row | Structure (SMILES) | IC50 [3] | Ki [12] | inhibition [19] | Ki [20] | other results
1 | COc1cccc(N2CCN(CC3CCN(c4ncnc5cc(OC)c(OC)cc45)C3)CC2)c1 (configuration not stated) | 7080 nM | 234 nM |  |  | microsomal CLint [1]: 292 µL/min/mg; Cmax [2]: 13.3 ng/mL; Cmax [4]: 436 ng/mL; AUC(0-t) [5]: 906 ng·h/mL; Tmax [6]: 30 min; Tmax [7]: 5 min; AUC(0-t) [8]: 438 ng·h/mL; Ki [9]: > 1000 nM; Cmax [10]: 210 ng/mL; pKi [11]: 6.58; AUC(0-t) [13]: 726 ng·h/mL; Tmax [14]: 15 min; Cmax [15]: 303 ng/mL; Tmax [16]: 30 min; AUCt [17]: 1164 ng·min/mL; Vd/F [18]: 0.253 L/kg; Ki (D(2) dopamine receptor): > 1000 nM
2 | COc1cc2ncnc(N3CCC(CN4CCN(c5ccc(O)cc5)CC4)C3)c2cc1OC (configuration not stated) |  | > 1000 nM | 18% | 468 nM | 
3 | COc1cc2ncnc(N3CCN(Cc4ccc5ccccc5n4)CC3)c2cc1OC |  | > 1000 nM | 8% | > 1000 nM | 
4 | c1cc(N2CCN(Cc3cnc4ccccc4n3)CC2)c2[nH]ncc2c1 |  | > 1000 nM |  | 87.1 nM | 
5 | COc1cc2ncnc(N3CCC(CN4CCN(c5cccc(Cl)c5)CC4)C3)c2cc1OC (configuration not stated) |  | 372 nM | 4% | 30.2 nM | 
6 | CSc1ccc2c(c1)CC(N1CCN(C)CC1)c1ccccc1S2 (configuration not stated) |  | 1.12 nM |  |  | 
7 | COc1cc2ncnc(N3CCC(CN4CCN(c5ccccc5O)CC4)C3)c2cc1OC (configuration not stated) | 6030 nM | 661 nM |  |  | 
8 | CNC(=C[N+](=O)[O-])NCCSCc1ccc(CN(C)C)o1 [RANITIDINE] |  |  |  |  | Papp A→B [21]: 0.3 ×10⁻⁶ cm/s; Papp A→B [22]: 0.9 ×10⁻⁶ cm/s
9 | COc1cc2ncnc(N3CCC(CN4CCN(c5ccccn5)CC4)C3)c2cc1OC (configuration not stated) |  | 282 nM | 11% | 8.13 nM | 
10 | COc1cc2ncnc(N3CCN(Cc4cnc5ccccc5n4)CC3)c2cc1OC | 170000 nM | > 1000 nM | 29% | > 1000 nM | 
11 | O=c1[nH]c2cccc(N3CCN(Cc4ccc5ccccc5n4)CC3)c2[nH]1 |  | 417 nM | 17% | 245 nM | 
12 | COc1cc2ncnc(N3CCC(CN4CCN(c5ccccc5OC)CC4)C3)c2cc1OC (configuration not stated) |  | 56.2 nM | 16% | 1.62 nM | 
13 | O=c1[nH]c2cccc(N3CCN(Cc4nc5ccccc5[nH]4)CC3)c2[nH]1 | 4070 nM | > 1000 nM | 23% | > 1000 nM | 
